Source: article PMC11480411, “Mucosal sugars delineate pyrazine vs pyrazinone autoinducer signaling in Klebsiella oxytoca” (Nature Communications, 2024)
Values joined by “and” are separate entries in the source; they are usually repeats but may differ in a detail not shown here. Equal values may be shown once.

Key:
[1] = test system: ∆pyr K. oxytoca; assay: RNA-seq of compound-supplemented ∆pyr K. oxytoca; format: cell-based, Klebsiella oxytoca ATCC 8724; settings: 10 µM
Protocol: A ∆pyr K. oxytoca glycerol stock was streaked onto an LB-Agar plate supplemented with spectinomycin (50 µg/mL) and incubated aerobically at 30°C for 24 h in a stationary incubator. Single colonies were grown for 24 h aerobically in 5 mL of M9 minimal medium supplemented with 5 g/L casamino acids and 0.4% D-galactose at 30 °C and 250 rpm. Each ∆pyr K. oxytoca overnight culture was diluted 1:1000 into fresh medium (5 mL) and incubated aerobically at 30 °C and 250 rpm to mid-exponential growth (OD600 = 0.8). These conditions abrogated both detectable pyrazine and pyrazinone production. At this point, 10 µM of compound in DMSO, were added to the cultures; an equal volume of DMSO was added to cultures without compound as a solvent vehicle control. The cultures were incubated under aerobic conditions with the compounds for one hour at 30 °C and at 250 rpm. After incubation, the cultures were centrifuged, the supernatants were decanted, and the cell pellets were quickly resuspended in 5 mL of Bacterial RNAProtect (Qiagen). The samples were centrifuged again, and the pellets were frozen on dry ice and stored at −80 °C until RNA extraction. The processed cell pellets were thawed on ice and resuspended in 200 µL of lysis buffer (10 mM Tris, 1 mM EDTA, 5 mg/mL lysozyme, 12.5 µg/mL proteinase K [pH 8.0]) and incubated at room temperature for 10 min. The RNA was extracted via the Qiagen RNeasy Mini kit, treated with TURBO DNase in a total volume of 100 µL at room temperature for 30 min, and extracted again using an RNeasy Mini kit. RNA-seq analysis was conducted by the Yale Center for Genome Analysis. Sequences were aligned to the K. oxytoca ATCC 8724 genome (NC_016612.1). Differential expression analysis was performed through DESeq2 and pathway enrichment analysis was performed through the Funage-Pro web-based platform.

[2] = target: T1, HRH1 (Homo sapiens, UniProt P35367); assay: PRESTO-Tango GPCR screen and dose-response; format: cell-based; settings: for HRH1 dose-response raw reporter signal (Fig. 5b source data): replicate wells
T1 construct: expressed in transfected cells; host or cells: HTLA cells (HEK293 line stably expressing β-arrestin-TEV and tTA-Luciferase)
T1 sequence (P35367 whole entry): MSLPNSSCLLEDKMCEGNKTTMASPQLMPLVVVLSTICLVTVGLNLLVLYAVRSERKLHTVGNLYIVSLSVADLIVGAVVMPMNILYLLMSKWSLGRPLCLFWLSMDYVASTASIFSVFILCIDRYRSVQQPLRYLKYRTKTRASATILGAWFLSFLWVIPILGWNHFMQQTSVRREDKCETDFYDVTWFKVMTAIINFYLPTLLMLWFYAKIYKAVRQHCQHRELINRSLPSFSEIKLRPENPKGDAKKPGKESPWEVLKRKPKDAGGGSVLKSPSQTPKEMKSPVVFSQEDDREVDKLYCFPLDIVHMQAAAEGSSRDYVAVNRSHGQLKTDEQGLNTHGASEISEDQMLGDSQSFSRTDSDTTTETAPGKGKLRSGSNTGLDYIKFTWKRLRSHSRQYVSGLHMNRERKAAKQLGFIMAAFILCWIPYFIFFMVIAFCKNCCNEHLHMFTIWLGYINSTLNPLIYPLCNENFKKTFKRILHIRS
Protocol: (§1) The PRESTO-Tango analyses were performed as previously published. Briefly, HTLA cells, a HEK293 cell line that stably expresses β-arrestin-TEV and tTA-Luciferase (a kind gift from Gilad Barnea, Brown University), were plated in 96-well tissue culture plates (Eppendorf) in DMEM containing 10% FBS and 1% Penicillin/Streptomycin. One day after plating (after reaching approximately 90% confluence), 200 ng per well GPCR-Tango plasmids[37] in 20 μL DMEM were individually mixed with 400 ng polyethylenimine (Polysciences) in an equal volume of DMEM and incubated for 20 min at room temperature before adding the transfection mixture to the HTLA cells. 16-24 h after transfection, medium was replaced with 180 μL fresh DMEM containing 1% Penicillin/Streptomycin and 10 mM HEPES and 20 μL of 3 or 3-Homo to reach a final concentration of 100 μM. Supernatants were aspirated 20 h after stimulation and 50 μl per well of Bright-Glo solution (Promega) diluted 20-fold with PBS containing 20 mM HEPES was added into each well. After 15 min incubation at room temperature, luminescence was quantified using a Spectramax i3x microplate reader (Molecular Devices). Activation fold for each sample was calculated by dividing relative luminescence units (RLU) for each condition by RLUs from PBS control. Dose response curves of each chemical were performed in a similar way with varying the ligand concentration from 10^−4 M to 10^−15 M.

[3] = target: T2, HRH2 (Homo sapiens, UniProt P25021); assay: PRESTO-Tango GPCR screen and dose-response; format: cell-based; settings: for HRH2 dose-response raw reporter signal (Fig. 5b source data): replicate wells
T2 construct: expressed in transfected cells; host or cells: HTLA cells (HEK293 line stably expressing β-arrestin-TEV and tTA-Luciferase)
T2 sequence (P25021 whole entry): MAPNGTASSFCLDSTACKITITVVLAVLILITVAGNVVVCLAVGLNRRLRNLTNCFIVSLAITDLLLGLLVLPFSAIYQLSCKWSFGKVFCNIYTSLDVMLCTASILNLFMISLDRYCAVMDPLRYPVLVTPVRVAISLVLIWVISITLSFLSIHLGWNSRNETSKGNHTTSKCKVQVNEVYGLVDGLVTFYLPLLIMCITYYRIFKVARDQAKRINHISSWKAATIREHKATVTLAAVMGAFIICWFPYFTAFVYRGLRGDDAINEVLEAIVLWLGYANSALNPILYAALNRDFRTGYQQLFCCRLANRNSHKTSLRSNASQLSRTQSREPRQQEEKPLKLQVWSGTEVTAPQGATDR
Protocol: as §1

[4] = target: T3, HRH3 (Homo sapiens, UniProt Q9Y5N1); assay: PRESTO-Tango GPCR screen and dose-response; format: cell-based; settings: for HRH3 dose-response raw reporter signal (Fig. 5b source data): replicate wells
T3 construct: expressed in transfected cells; host or cells: HTLA cells (HEK293 line stably expressing β-arrestin-TEV and tTA-Luciferase)
T3 sequence (Q9Y5N1 whole entry): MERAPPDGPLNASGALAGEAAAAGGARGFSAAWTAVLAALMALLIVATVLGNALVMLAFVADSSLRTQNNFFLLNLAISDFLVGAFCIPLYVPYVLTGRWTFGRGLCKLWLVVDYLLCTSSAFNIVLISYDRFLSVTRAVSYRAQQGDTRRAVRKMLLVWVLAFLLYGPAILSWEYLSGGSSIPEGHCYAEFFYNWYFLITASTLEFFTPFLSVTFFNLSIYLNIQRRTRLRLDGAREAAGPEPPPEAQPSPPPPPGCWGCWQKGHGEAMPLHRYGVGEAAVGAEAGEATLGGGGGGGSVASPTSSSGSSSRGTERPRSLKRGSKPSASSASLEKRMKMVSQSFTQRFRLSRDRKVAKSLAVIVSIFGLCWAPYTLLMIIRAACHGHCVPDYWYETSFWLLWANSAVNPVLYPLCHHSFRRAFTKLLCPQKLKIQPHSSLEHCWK
Protocol: as §1

[5] = target: T4, histamine receptor H4 (HRH4) (Homo sapiens, UniProt Q9H3N8); assay: PRESTO-Tango GPCR screen and dose-response; format: cell-based; settings: for HRH4 dose-response raw reporter signal (Fig. 5b source data): replicate wells
T4 construct: expressed in transfected cells; host or cells: HTLA cells (HEK293 line stably expressing β-arrestin-TEV and tTA-Luciferase)
T4 sequence (Q9H3N8 whole entry): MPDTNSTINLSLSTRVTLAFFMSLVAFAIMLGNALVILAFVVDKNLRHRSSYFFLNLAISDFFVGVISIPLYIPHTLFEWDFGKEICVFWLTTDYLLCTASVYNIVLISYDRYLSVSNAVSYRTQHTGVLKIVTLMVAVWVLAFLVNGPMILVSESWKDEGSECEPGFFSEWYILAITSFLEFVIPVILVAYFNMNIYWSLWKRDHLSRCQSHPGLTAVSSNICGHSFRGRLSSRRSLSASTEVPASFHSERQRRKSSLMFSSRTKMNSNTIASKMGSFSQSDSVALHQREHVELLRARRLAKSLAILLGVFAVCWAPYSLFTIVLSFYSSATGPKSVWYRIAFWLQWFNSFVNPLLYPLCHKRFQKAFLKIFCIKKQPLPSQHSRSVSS
Protocol: as §1

Cc1cnc(CCC(=O)O)c(Cc2ccccc2)n1 [compound 7]
number of differentially regulated genes ([1]; one hour, vs DMSO, Padj < 0.05, abs(log2FC) > 1): 644 genes | effect on enterobactin BGC transcription ([1]; vs DMSO control, RNA-seq): significantly enhanced transcription of the enterobactin BGC | KEGG pathway enrichment neglogP: Citrate cycle, downregulated ([1]; Funage-Pro, 7 downreg): 3.041 | KEGG pathway enrichment neglogP: Glycerolipid metabolism, downregulated ([1]; Funage-Pro, 7 downreg): 4.481 | KEGG pathway enrichment neglogP: Nitrogen metabolism, downregulated ([1]; Funage-Pro, 7 downreg): 3.06 | KEGG pathway enrichment neglogP: ABC Transporters, upregulated ([1]; Funage-Pro, 7 upreg): 4.602 | KEGG pathway enrichment neglogP: Biosynthesis of siderophore group nonribosomal peptides, upregulated ([1]; Funage-Pro, 7 upreg): 5.301 | KEGG pathway enrichment neglogP: Oxidative phosphorylation, upregulated ([1]; Funage-Pro, 7 upreg): 3.252 | KEGG pathway enrichment neglogP: Phenylalanine Metabolism, upregulated ([1]; Funage-Pro, 7 upreg): 4.301 | effect on cytochrome-related operons transcription ([1]; RNA-seq, pyrazine 7 compared with pyrazinone 3): prominently upregulated | HRH1 dose-response raw reporter signal (Fig. 5b source data) ([2]; Log(10)Conc (M) -4): 51351 and 49812 and 56357 | HRH1 dose-response raw reporter signal (Fig. 5b source data) ([2]; Log(10)Conc (M) -5): 52012 and 52029 and 55110 | HRH1 dose-response raw reporter signal (Fig. 5b source data) ([2]; Log(10)Conc (M) -6): 48657 and 55248 and 53819 | HRH1 dose-response raw reporter signal (Fig. 5b source data) ([2]; Log(10)Conc (M) -7): 47504 and 53144 and 54812 | HRH1 dose-response raw reporter signal (Fig. 5b source data) ([2]; Log(10)Conc (M) -8): 48011 and 51622 and 55024 | HRH1 dose-response raw reporter signal (Fig. 5b source data) ([2]; Log(10)Conc (M) -9): 49795 and 49308 and 52115 | HRH1 dose-response raw reporter signal (Fig. 5b source data) ([2]; Log(10)Conc (M) -10): 46794 and 49653 and 52654 | HRH1 dose-response raw reporter signal (Fig. 5b source data) ([2]; Log(10)Conc (M) -11): 47026 and 50225 and 51761 | HRH1 dose-response raw reporter signal (Fig. 5b source data) ([2]; Log(10)Conc (M) -12): 51855 and 50992 and 52000 | HRH1 dose-response raw reporter signal (Fig. 5b source data) ([2]; Log(10)Conc (M) -13): 49320 and 51552 and 55349 | HRH1 dose-response raw reporter signal (Fig. 5b source data) ([2]; Log(10)Conc (M) -14): 48035 and 52604 and 51817 | HRH1 dose-response raw reporter signal (Fig. 5b source data) ([2]; Log(10)Conc (M) -15): 39264 and 44810 and 48161 | activity towards HRH1 ([2]; PRESTO-Tango dose-response): no activity | HRH2 dose-response raw reporter signal (Fig. 5b source data) ([3]; Log(10)Conc (M) -4): 62 and 50 and 47 | HRH2 dose-response raw reporter signal (Fig. 5b source data) ([3]; Log(10)Conc (M) -5): 47 and 50 and 83 | HRH2 dose-response raw reporter signal (Fig. 5b source data) ([3]; Log(10)Conc (M) -6): 18 and 53 and 71 | HRH2 dose-response raw reporter signal (Fig. 5b source data) ([3]; Log(10)Conc (M) -7): 50 (2×) and 74 | HRH2 dose-response raw reporter signal (Fig. 5b source data) ([3]; Log(10)Conc (M) -8): 44 and 35 and 56 | HRH2 dose-response raw reporter signal (Fig. 5b source data) ([3]; Log(10)Conc (M) -9): 97 and 65 and 41 | HRH2 dose-response raw reporter signal (Fig. 5b source data) ([3]; Log(10)Conc (M) -10): 56 and 32 and 21 | HRH2 dose-response raw reporter signal (Fig. 5b source data) ([3]; Log(10)Conc (M) -11): 18 and 53 and 44 | HRH2 dose-response raw reporter signal (Fig. 5b source data) ([3]; Log(10)Conc (M) -12): 32 and 65 and 68 | HRH2 dose-response raw reporter signal (Fig. 5b source data) ([3]; Log(10)Conc (M) -13): 35 and 62 and 97 | HRH2 dose-response raw reporter signal (Fig. 5b source data) ([3]; Log(10)Conc (M) -14): 32 and 47 and 68 | HRH2 dose-response raw reporter signal (Fig. 5b source data) ([3]; Log(10)Conc (M) -15): 77 and 53 and 71 | activity towards HRH2 ([3]; PRESTO-Tango dose-response): no activity | HRH3 dose-response raw reporter signal (Fig. 5b source data) ([4]; Log(10)Conc (M) -4): 106 and 112 and 159 | HRH3 dose-response raw reporter signal (Fig. 5b source data) ([4]; Log(10)Conc (M) -5): 124 and 133 and 80 | HRH3 dose-response raw reporter signal (Fig. 5b source data) ([4]; Log(10)Conc (M) -6): 56 and 106 and 124 | HRH3 dose-response raw reporter signal (Fig. 5b source data) ([4]; Log(10)Conc (M) -7): 83 and 106 and 180 | HRH3 dose-response raw reporter signal (Fig. 5b source data) ([4]; Log(10)Conc (M) -8): 112 and 142 and 106 | HRH3 dose-response raw reporter signal (Fig. 5b source data) ([4]; Log(10)Conc (M) -9): 97 and 112 and 139 | HRH3 dose-response raw reporter signal (Fig. 5b source data) ([4]; Log(10)Conc (M) -10): 139 and 97 and 159 | HRH3 dose-response raw reporter signal (Fig. 5b source data) ([4]; Log(10)Conc (M) -11): 91 and 139 and 136 | HRH3 dose-response raw reporter signal (Fig. 5b source data) ([4]; Log(10)Conc (M) -12): 118 and 124 and 203 | HRH3 dose-response raw reporter signal (Fig. 5b source data) ([4]; Log(10)Conc (M) -13): 59 and 109 and 130 | HRH3 dose-response raw reporter signal (Fig. 5b source data) ([4]; Log(10)Conc (M) -14): 85 and 142 and 124 | HRH3 dose-response raw reporter signal (Fig. 5b source data) ([4]; Log(10)Conc (M) -15): 53 and 91 and 112 | activity towards HRH3 ([4]; PRESTO-Tango dose-response): no activity | HRH4 dose-response raw reporter signal (Fig. 5b source data) ([5]; Log(10)Conc (M) -5): 245 and 339 | HRH4 dose-response raw reporter signal (Fig. 5b source data) ([5]; Log(10)Conc (M) -6): 295 and 333 | HRH4 dose-response raw reporter signal (Fig. 5b source data) ([5]; Log(10)Conc (M) -7): 242 and 304 | HRH4 dose-response raw reporter signal (Fig. 5b source data) ([5]; Log(10)Conc (M) -8): 271 and 336 | HRH4 dose-response raw reporter signal (Fig. 5b source data) ([5]; Log(10)Conc (M) -9): 425 and 324 | HRH4 dose-response raw reporter signal (Fig. 5b source data) ([5]; Log(10)Conc (M) -10): 307 and 401 | HRH4 dose-response raw reporter signal (Fig. 5b source data) ([5]; Log(10)Conc (M) -11): 312 and 366 | HRH4 dose-response raw reporter signal (Fig. 5b source data) ([5]; Log(10)Conc (M) -12): 242 and 292 | HRH4 dose-response raw reporter signal (Fig. 5b source data) ([5]; Log(10)Conc (M) -13): 256 and 383 | HRH4 dose-response raw reporter signal (Fig. 5b source data) ([5]; Log(10)Conc (M) -14): 271 and 304 | HRH4 dose-response raw reporter signal (Fig. 5b source data) ([5]; Log(10)Conc (M) -15): 286 and 230 | activity towards HRH4 ([5]; PRESTO-Tango dose-response): no activity
